Assay results: PubChem BioAssay AID2060333 (Molecular Pharmacology Branch, DTP, NCI, 2025)
“And” between values parts separate entries of the source, which are not always exact repeats. Equal values may be shown once.

Test system: 845751-090-R-J2-PDC tumor spheroid viability
Experiment: Anticancer human tumor 845751-090-R-J2-PDC patient-derived head and neck squamous carcinoma cell line growth inhibition [IpAb]
Settings: spheroids with HUVEC and MSC; for viability, T/C: stronger effect = lower value
Procedure, shortened: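 Multi-cell spheroids of 60% tumour cells, 25% HUVEC and 15% MSC in ultra-low-attachment U-bottom wells, treated with agents combined with ipatasertib or abemaciclib. Half-log ranges top out near clinical Cmax, or 10 microM when Cmax is unknown.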

[1] = curve of first compound, second compound 0.1 µM
[2] = curve of first compound, second compound 0.316 µM
[3] = curve of first compound, second compound 1 µM
[4] = curve of first compound, second compound 3.16 µM
[5] = curve of first compound, second compound 10 µM
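Note: spheroids exposed to compounds for 7 days before readout.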
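Throughout, for viability, T/C: CTG3D luminescence normalised so that 100% = DMSO vehicle control.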

Cn1cnc2c(F)c(Nc3ccc(Br)cc3Cl)c(C(=O)NOCCO)cc21 + CC(C)NCC(C(=O)N1CCN(c2ncnc3c2C(C)CC3O)CC1)c1ccc(Cl)cc1
IC50 [1]: < 9.49 nM
IC50 [2]: < 9.49 nM
IC50 [3]: < 9.49 nM
IC50 [4]: < 9.49 nM
IC50 [5]: < 9.49 nM
viability, T/C (second compound 0.1 µM, first compound 0.00949 µM): 40.2%
viability, T/C (second compound 0.1 µM, first compound 0.03 µM): 29.9%
viability, T/C (second compound 0.1 µM, first compound 0.0949 µM): 23.6%
viability, T/C (second compound 0.1 µM, first compound 0.3 µM): 20.6%
viability, T/C (second compound 0.1 µM, first compound 0.949 µM): 16.6%
viability, T/C (second compound 0.1 µM, first compound 3 µM): 12.3%
viability, T/C (second compound 0.316 µM, first compound 0.00949 µM): 17.2%
viability, T/C (second compound 0.316 µM, first compound 0.03 µM): 15.4%
viability, T/C (second compound 0.316 µM, first compound 0.0949 µM): 11.9%
viability, T/C (second compound 0.316 µM, first compound 0.3 µM): 11.2%
viability, T/C (second compound 0.316 µM, first compound 0.949 µM): 7.05%
viability, T/C (second compound 0.316 µM, first compound 3 µM): 5%
viability, T/C (second compound 1 µM, first compound 0.00949 µM): 14.4%
viability, T/C (second compound 1 µM, first compound 0.03 µM): 10.5%
viability, T/C (second compound 1 µM, first compound 0.0949 µM): 6.55%
viability, T/C (second compound 1 µM, first compound 0.3 µM): 4.68%
viability, T/C (second compound 1 µM, first compound 0.949 µM): 4.96%
viability, T/C (second compound 1 µM, first compound 3 µM): 2.43%
viability, T/C (second compound 3.16 µM, first compound 0.00949 µM): 11.3%
viability, T/C (second compound 3.16 µM, first compound 0.03 µM): 5.57%
viability, T/C (second compound 3.16 µM, first compound 0.0949 µM): 3.02%
viability, T/C (second compound 3.16 µM, first compound 0.3 µM): 3.4%
viability, T/C (second compound 3.16 µM, first compound 0.949 µM): 1.75%
viability, T/C (second compound 3.16 µM, first compound 3 µM): 1.07%
viability, T/C (second compound 10 µM, first compound 0.00949 µM): 2.67%
viability, T/C (second compound 10 µM, first compound 0.03 µM): 1.92%
viability, T/C (second compound 10 µM, first compound 0.0949 µM): 1.37%
viability, T/C (second compound 10 µM, first compound 0.3 µM): 1.13%
viability, T/C (second compound 10 µM, first compound 0.949 µM): 2.24%
viability, T/C (second compound 10 µM, first compound 3 µM): 0.56%

C=CCn1c(=O)c2cnc(Nc3ccc(N4CCN(C)CC4)cc3)nc2n1-c1cccc(C(C)(C)O)n1 + CC(C)NCC(C(=O)N1CCN(c2ncnc3c2C(C)CC3O)CC1)c1ccc(Cl)cc1
IC50 [1]: 54.6 nM
IC50 [2]: < 31.6 nM
IC50 [3]: < 31.6 nM
IC50 [4]: < 31.6 nM
IC50 [5]: < 31.6 nM
viability, T/C (second compound 0.1 µM, first compound 0.0316 µM): 62.1%
viability, T/C (second compound 0.1 µM, first compound 0.1 µM): 38.2%
viability, T/C (second compound 0.1 µM, first compound 0.316 µM): 22.2%
viability, T/C (second compound 0.1 µM, first compound 1 µM): 21.7%
viability, T/C (second compound 0.1 µM, first compound 3.16 µM): 35.8%
viability, T/C (second compound 0.1 µM, first compound 10 µM): 56.6%
viability, T/C (second compound 0.316 µM, first compound 0.0316 µM): 34%
viability, T/C (second compound 0.316 µM, first compound 0.1 µM): 22.1%
viability, T/C (second compound 0.316 µM, first compound 0.316 µM): 19.9%
viability, T/C (second compound 0.316 µM, first compound 1 µM): 16.9%
viability, T/C (second compound 0.316 µM, first compound 3.16 µM): 22.1%
viability, T/C (second compound 0.316 µM, first compound 10 µM): 28.4%
viability, T/C (second compound 1 µM, first compound 0.0316 µM): 24.5%
viability, T/C (second compound 1 µM, first compound 0.1 µM): 15%
viability, T/C (second compound 1 µM, first compound 0.316 µM): 11.1%
viability, T/C (second compound 1 µM, first compound 1 µM): 13.7%
viability, T/C (second compound 1 µM, first compound 3.16 µM): 22.9%
viability, T/C (second compound 1 µM, first compound 10 µM): 18.9%
viability, T/C (second compound 3.16 µM, first compound 0.0316 µM): 19.2%
viability, T/C (second compound 3.16 µM, first compound 0.1 µM): 8.76%
viability, T/C (second compound 3.16 µM, first compound 0.316 µM): 7.09%
viability, T/C (second compound 3.16 µM, first compound 1 µM): 32.9%
viability, T/C (second compound 3.16 µM, first compound 3.16 µM): 19.9%
viability, T/C (second compound 3.16 µM, first compound 10 µM): 11.9%
viability, T/C (second compound 10 µM, first compound 0.0316 µM): 6.27%
viability, T/C (second compound 10 µM, first compound 0.1 µM): 4.29%
viability, T/C (second compound 10 µM, first compound 0.316 µM): 4.36%
viability, T/C (second compound 10 µM, first compound 1 µM): 14%
viability, T/C (second compound 10 µM, first compound 3.16 µM): 13.9%
viability, T/C (second compound 10 µM, first compound 10 µM): 8.16%

CCCS(=O)(=O)Nc1ccc(F)c(C(=O)c2c[nH]c3ncc(-c4ccc(Cl)cc4)cc23)c1F
viability, T/C (compound 0.0316 µM): 134% and 78.5%
viability, T/C (compound 0.1 µM): 120% and 76.5%
viability, T/C (compound 0.316 µM): 111% and 63%
viability, T/C (compound 1 µM): 84.5% and 45.3%
viability, T/C (compound 3.16 µM): 46.7% and 33.6%
viability, T/C (compound 10 µM): 50.4% and 29.4%
IC50 (curve of compound): 5550 nM and 737 nM

CC(C)(C)c1cnc(CSc2cnc(NC(=O)C3CCNCC3)s2)o1
viability, T/C (compound 0.00949 µM): 133% and 138%
viability, T/C (compound 0.03 µM): 147% and 141%
viability, T/C (compound 0.0949 µM): 50.3% and 77.6%
viability, T/C (compound 0.3 µM): 1.67% and 2.96%
viability, T/C (compound 0.949 µM): 1.36% and 1.78%
viability, T/C (compound 3 µM): 0.89% and 2.1%
IC50 (curve of compound): 95.6 nM and 145 nM
